Data as given in article PMC10434068, “Discriminating Susceptibility of Xanthine Oxidoreductase Family to Metals” (Microbiology Spectrum, 2023).

Assays:
[1] = molecular target: T1, pCOD (putative CO dehydrogenase; CoxSLM complex) (Rubrivivax gelatinosus, UniProt I0HW74+I0HW75); experiment: in-gel NBT reductase activity, native PAGE of soluble fraction, no riboflavin; format: biochemical; settings: NBT 2 mg/mL; 50 mM Tris-HCl pH 7.6; room temperature, dark; no electron donor added; reduction may run through superoxide
T1 construct: gene coxL; native complex in soluble fraction, native PAGE band between 130 and 250 kDa; predicted 126 kDa (CoxL 84, CoxM 27, CoxS 17 kDa); band absent in coxL mutant; with Carbon monoxide dehydrogenase large chain; Carbon monoxide dehydrogenase small chain
T1 sequence (I0HW74 1-781): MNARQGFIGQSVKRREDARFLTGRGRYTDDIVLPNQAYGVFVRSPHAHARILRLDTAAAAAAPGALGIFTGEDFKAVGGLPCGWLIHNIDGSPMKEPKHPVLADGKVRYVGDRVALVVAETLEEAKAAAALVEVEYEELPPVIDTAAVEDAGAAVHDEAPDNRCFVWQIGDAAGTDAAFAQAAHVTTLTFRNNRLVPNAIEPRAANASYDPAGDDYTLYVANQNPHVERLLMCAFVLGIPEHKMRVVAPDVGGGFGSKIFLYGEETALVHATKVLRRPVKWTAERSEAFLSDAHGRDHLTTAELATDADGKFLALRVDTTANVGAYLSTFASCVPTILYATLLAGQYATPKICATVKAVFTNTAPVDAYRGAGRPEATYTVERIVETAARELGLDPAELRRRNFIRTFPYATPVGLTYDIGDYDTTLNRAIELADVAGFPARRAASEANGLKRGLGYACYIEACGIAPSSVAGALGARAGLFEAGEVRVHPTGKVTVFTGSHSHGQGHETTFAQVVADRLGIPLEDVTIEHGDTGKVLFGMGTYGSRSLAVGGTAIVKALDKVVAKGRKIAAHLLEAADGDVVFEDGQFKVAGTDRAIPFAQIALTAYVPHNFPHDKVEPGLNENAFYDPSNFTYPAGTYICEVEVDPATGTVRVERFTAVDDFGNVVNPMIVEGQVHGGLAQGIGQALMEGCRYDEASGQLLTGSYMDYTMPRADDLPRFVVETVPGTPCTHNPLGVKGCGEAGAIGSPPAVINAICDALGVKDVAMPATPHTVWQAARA
T1 sequence (I0HW75 1-265): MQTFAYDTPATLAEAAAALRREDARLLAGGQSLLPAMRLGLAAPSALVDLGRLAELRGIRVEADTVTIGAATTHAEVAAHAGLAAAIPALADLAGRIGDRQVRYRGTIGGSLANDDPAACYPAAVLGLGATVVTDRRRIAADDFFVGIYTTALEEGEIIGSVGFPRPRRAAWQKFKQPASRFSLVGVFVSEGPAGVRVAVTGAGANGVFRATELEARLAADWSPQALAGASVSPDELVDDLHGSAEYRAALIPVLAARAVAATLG
T1 sequence (I0HW73 1-155 partner): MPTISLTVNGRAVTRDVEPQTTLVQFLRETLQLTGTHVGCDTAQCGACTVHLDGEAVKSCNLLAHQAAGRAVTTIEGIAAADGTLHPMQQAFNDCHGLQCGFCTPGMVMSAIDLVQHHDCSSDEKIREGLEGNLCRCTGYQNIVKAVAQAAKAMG

[2] = molecular target: T2, XDH (xanthine dehydrogenase) of R. gelatinosus (Rubrivivax gelatinosus, UniProt I0HWE5); experiment: in-gel NBT reductase activity, native PAGE of soluble fraction; format: biochemical; settings: NBT 2 mg/mL as electron acceptor; 50 mM Tris-HCl pH 7.6; room temperature
T2 construct: gene xdhB; native complex of about 250 kDa in soluble fraction, native PAGE band; XdhB 82 kDa, XdhA 54 kDa, XdhC 27 kDa; band absent in xdhB mutant; with Xanthine dehydrogenase, FAD and iron-sulfur subunit XdhA; Xanthine dehydrogenase subunit or accessory protein XdhC
T2 sequence (I0HWE5 1-778): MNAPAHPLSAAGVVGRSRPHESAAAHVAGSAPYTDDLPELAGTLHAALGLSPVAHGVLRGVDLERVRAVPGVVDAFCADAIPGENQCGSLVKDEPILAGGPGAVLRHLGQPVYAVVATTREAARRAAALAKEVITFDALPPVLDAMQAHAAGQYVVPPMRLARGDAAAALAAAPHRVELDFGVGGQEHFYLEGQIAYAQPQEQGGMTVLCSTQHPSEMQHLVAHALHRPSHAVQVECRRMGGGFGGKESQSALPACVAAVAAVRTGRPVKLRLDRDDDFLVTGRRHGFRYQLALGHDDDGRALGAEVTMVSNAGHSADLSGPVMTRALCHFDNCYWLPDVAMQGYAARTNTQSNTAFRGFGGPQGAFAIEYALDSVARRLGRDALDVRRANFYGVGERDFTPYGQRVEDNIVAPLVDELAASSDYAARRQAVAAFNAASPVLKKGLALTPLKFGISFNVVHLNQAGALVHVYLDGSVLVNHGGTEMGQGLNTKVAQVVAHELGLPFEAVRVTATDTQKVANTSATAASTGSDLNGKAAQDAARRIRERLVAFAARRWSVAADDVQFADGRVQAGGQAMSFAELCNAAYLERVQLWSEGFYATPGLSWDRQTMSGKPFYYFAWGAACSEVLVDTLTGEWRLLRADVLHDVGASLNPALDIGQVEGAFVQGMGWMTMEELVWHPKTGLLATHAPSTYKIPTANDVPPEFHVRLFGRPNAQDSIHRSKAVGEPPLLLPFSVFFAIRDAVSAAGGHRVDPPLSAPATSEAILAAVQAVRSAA
T2 sequence (I0HWE6 1-493 partner): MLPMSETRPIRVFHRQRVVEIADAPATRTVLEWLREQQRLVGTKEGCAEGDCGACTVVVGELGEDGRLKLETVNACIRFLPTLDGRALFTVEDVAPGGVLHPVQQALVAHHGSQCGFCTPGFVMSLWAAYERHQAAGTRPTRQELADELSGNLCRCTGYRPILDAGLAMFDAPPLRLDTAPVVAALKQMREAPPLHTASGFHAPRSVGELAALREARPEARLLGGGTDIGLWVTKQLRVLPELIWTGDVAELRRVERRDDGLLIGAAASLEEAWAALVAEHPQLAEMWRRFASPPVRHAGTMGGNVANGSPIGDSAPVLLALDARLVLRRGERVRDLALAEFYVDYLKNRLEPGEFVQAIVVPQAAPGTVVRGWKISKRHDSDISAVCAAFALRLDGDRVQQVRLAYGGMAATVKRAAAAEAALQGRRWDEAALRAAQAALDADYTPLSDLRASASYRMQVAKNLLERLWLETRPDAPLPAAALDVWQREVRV

COc1cc(-c2ccc(-n3nc(-c4ccccc4)n[n+]3-c3ccc([N+](=O)[O-])cc3)c(OC)c2)ccc1-n1nc(-c2ccccc2)n[n+]1-c1ccc([N+](=O)[O-])cc1 [nitroblue tetrazolium]
in-gel NBT reductase activity, native PAGE of soluble fraction, no riboflavin [1]: able to reduce NBT to NBT-formazan in the absence of riboflavin

O=c1[nH]c(=O)c2[nH]cnc2[nH]1 [xanthine]
in-gel NBT reductase activity, native PAGE of soluble fraction [2]: the addition of xanthine to the native PAGE gel revealed a second active band
